# In PubChem BioAssay AID1963833 (Molecular Pharmacology Branch, DTP, NCI, 2024):
# Tested on: 883617-216-R-J1-PDC complex spheroid viability
# Assay: Anticancer human tumor 883617-216-R-J1-PDC patient-derived bladder carcinoma cell line growth inhibition [POLQ]
# Details: for IC50: curve of first compound; for viability, T/C: stronger effect = lower value
# Summary of the method: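 Complex spheroid viability model combining PDC tumour cells with endothelial (HUVEC) and MSC stromal cells. Novobiocin, ART-558 or RP6685 were tested singly and in combination with standard and investigational anticancer drugs. Each was titrated in half-log steps from near clinical Cmax, or from 10 microM where Cmax was unknown.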
# [1] = second compound 0.0316 µM, first compound 0.0316 µM
# [2] = second compound 0.0316 µM, first compound 0.1 µM
# [3] = second compound 0.0316 µM, first compound 0.316 µM
# [4] = second compound 0.0316 µM, first compound 1 µM
# [5] = second compound 0.0316 µM, first compound 3.16 µM
# [6] = second compound 0.0316 µM, first compound 10 µM
# [7] = second compound 0.1 µM, first compound 0.0316 µM
# [8] = second compound 0.1 µM, first compound 0.1 µM
# [9] = second compound 0.1 µM, first compound 0.316 µM
# [10] = second compound 0.1 µM, first compound 1 µM
# [11] = second compound 0.1 µM, first compound 3.16 µM
# [12] = second compound 0.1 µM, first compound 10 µM
# [13] = second compound 0.316 µM, first compound 0.0316 µM
# [14] = second compound 0.316 µM, first compound 0.1 µM
# [15] = second compound 0.316 µM, first compound 0.316 µM
# [16] = second compound 0.316 µM, first compound 1 µM
# [17] = second compound 0.316 µM, first compound 3.16 µM
# [18] = second compound 0.316 µM, first compound 10 µM
# [19] = second compound 1 µM, first compound 0.0316 µM
# [20] = second compound 1 µM, first compound 0.1 µM
# [21] = second compound 1 µM, first compound 0.316 µM
# [22] = second compound 1 µM, first compound 1 µM
# [23] = second compound 1 µM, first compound 3.16 µM
# [24] = second compound 1 µM, first compound 10 µM
# [25] = second compound 3.16 µM, first compound 0.0316 µM
# [26] = second compound 3.16 µM, first compound 0.1 µM
# [27] = second compound 3.16 µM, first compound 0.316 µM
# [28] = second compound 3.16 µM, first compound 1 µM
# [29] = second compound 3.16 µM, first compound 3.16 µM
# [30] = second compound 3.16 µM, first compound 10 µM
# [31] = second compound 10 µM, first compound 0.0316 µM
# [32] = second compound 10 µM, first compound 0.1 µM
# [33] = second compound 10 µM, first compound 0.316 µM
# [34] = second compound 10 µM, first compound 1 µM
# [35] = second compound 10 µM, first compound 3.16 µM
# [36] = second compound 10 µM, first compound 10 µM
# 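Also: spheroids exposed to compounds for seven days before readout.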
# 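For viability, T/C in this document: 100% = DMSO vehicle control viability.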
compound,measurement,setting,value
CC(C)n1c(=O)n(C)c2cnc3cc(F)c(-c4ccc(OCCCN5CCCCC5)nc4)cc3c21 + Cc1cccc(N(C)C(=O)C2C(O)CCN2c2nc(C)cc(C(F)(F)F)c2C#N)c1,IC50,second compound 0.0316 µM,> 10 µM
same,IC50,second compound 0.1 µM,> 10 µM
same,IC50,second compound 0.316 µM,> 10 µM
same,IC50,second compound 1 µM,> 10 µM
same,IC50,second compound 3.16 µM,> 10 µM
same,IC50,second compound 10 µM,> 10 µM
same,"viability, T/C",[1],105%
same,"viability, T/C",[2],96.2%
same,"viability, T/C",[3],108%
same,"viability, T/C",[4],90%
same,"viability, T/C",[5],83.9%
same,"viability, T/C",[6],59.9%
same,"viability, T/C",[7],108%
same,"viability, T/C",[8],111%
same,"viability, T/C",[9],105%
same,"viability, T/C",[10],98.7%
same,"viability, T/C",[11],91.5%
same,"viability, T/C",[12],62%
same,"viability, T/C",[13],107%
same,"viability, T/C",[14],93.6%
same,"viability, T/C",[15],97.2%
same,"viability, T/C",[16],110%
same,"viability, T/C",[17],92.8%
same,"viability, T/C",[18],59%
same,"viability, T/C",[19],95.9%
same,"viability, T/C",[20],108%
same,"viability, T/C",[21],96.1%
same,"viability, T/C",[22],98.7%
same,"viability, T/C",[23],96.6%
same,"viability, T/C",[24],59.5%
same,"viability, T/C",[25],100%
same,"viability, T/C",[26],107%
same,"viability, T/C",[27],105%
same,"viability, T/C",[28],108%
same,"viability, T/C",[29],95.6%
same,"viability, T/C",[30],65.3%
same,"viability, T/C",[31],108%
same,"viability, T/C",[32],112%
same,"viability, T/C",[33],114%
same,"viability, T/C",[34],98.3%
same,"viability, T/C",[35],105%
same,"viability, T/C",[36],63.4%
O=c1[nH]cc(F)c(=O)[nH]1 + Cc1cccc(N(C)C(=O)C2C(O)CCN2c2nc(C)cc(C(F)(F)F)c2C#N)c1,IC50,second compound 0.0316 µM,> 10 µM
same,IC50,second compound 0.1 µM,> 10 µM
same,IC50,second compound 0.316 µM,> 10 µM
same,IC50,second compound 1 µM,> 10 µM
same,IC50,second compound 3.16 µM,> 10 µM
same,IC50,second compound 10 µM,> 10 µM
same,"viability, T/C",[1],97%
same,"viability, T/C",[2],104%
same,"viability, T/C",[3],94.7%
same,"viability, T/C",[4],89.7%
same,"viability, T/C",[5],79.4%
same,"viability, T/C",[6],57.8%
same,"viability, T/C",[7],93.3%
same,"viability, T/C",[8],97.2%
same,"viability, T/C",[9],89.3%
same,"viability, T/C",[10],102%
same,"viability, T/C",[11],75.9%
same,"viability, T/C",[12],62.3%
same,"viability, T/C",[13],104%
same,"viability, T/C",[14],107%
same,"viability, T/C",[15],100%
same,"viability, T/C",[16],109%
same,"viability, T/C",[17],75.1%
same,"viability, T/C",[18],64.8%
same,"viability, T/C",[19],101%
same,"viability, T/C",[20],105%
same,"viability, T/C",[21],94.6%
same,"viability, T/C",[22],88.2%
same,"viability, T/C",[23],70.7%
same,"viability, T/C",[24],66.4%
same,"viability, T/C",[25],101%
same,"viability, T/C",[26],90.1%
same,"viability, T/C",[27],104%
same,"viability, T/C",[28],85.6%
same,"viability, T/C",[29],79.5%
same,"viability, T/C",[30],65.7%
same,"viability, T/C",[31],115%
same,"viability, T/C",[32],102%
same,"viability, T/C",[33],93.8%
same,"viability, T/C",[34],89.9%
same,"viability, T/C",[35],78.6%
same,"viability, T/C",[36],74.6%
CCc1cc2c(N3CCc4c(cc(Cn5ccnc5)cc4-c4cn(C)nc4C(F)(F)F)C3=O)ccnc2c(OC)n1 + COC1C(OC(N)=O)C(O)C(Oc2ccc3c(O)c(NC(=O)c4ccc(O)c(CC=C(C)C)c4)c(=O)oc3c2C)OC1(C)C,IC50,second compound 0.0316 µM,> 10 µM
same,IC50,second compound 0.1 µM,> 10 µM
same,IC50,second compound 0.316 µM,> 10 µM
same,IC50,second compound 1 µM,> 10 µM
same,IC50,second compound 3.16 µM,> 10 µM
same,IC50,second compound 10 µM,> 10 µM
same,"viability, T/C",[1],103%
same,"viability, T/C",[2],103%
same,"viability, T/C",[3],97.7%
same,"viability, T/C",[4],104%
same,"viability, T/C",[5],78.8%
same,"viability, T/C",[6],57.6%
same,"viability, T/C",[7],97.8%
same,"viability, T/C",[8],93.9%
same,"viability, T/C",[9],101%
same,"viability, T/C",[10],92.5%
same,"viability, T/C",[11],72.7%
same,"viability, T/C",[12],58.6%
same,"viability, T/C",[13],106%
same,"viability, T/C",[14],93.4%
same,"viability, T/C",[15],115%
same,"viability, T/C",[16],99.9%
same,"viability, T/C",[17],78.2%
same,"viability, T/C",[18],53.5%
same,"viability, T/C",[19],102%
same,"viability, T/C",[20],93.1%
same,"viability, T/C",[21],115%
same,"viability, T/C",[22],100%
same,"viability, T/C",[23],82.4%
same,"viability, T/C",[24],57.1%
same,"viability, T/C",[25],94.6%
same,"viability, T/C",[26],95.3%
same,"viability, T/C",[27],106%
same,"viability, T/C",[28],104%
same,"viability, T/C",[29],79.2%
same,"viability, T/C",[30],62.6%
same,"viability, T/C",[31],103%
same,"viability, T/C",[32],93.4%
same,"viability, T/C",[33],110%
same,"viability, T/C",[34],106%
same,"viability, T/C",[35],75.3%
same,"viability, T/C",[36],57.8%
CC1COCCN1c1cc(C2(O)CC3CCC(C2)O3)c2cnn(-c3ccn[nH]3)c2n1 (stereo not drawn) + COC1C(OC(N)=O)C(O)C(Oc2ccc3c(O)c(NC(=O)c4ccc(O)c(CC=C(C)C)c4)c(=O)oc3c2C)OC1(C)C,IC50,second compound 0.0316 µM,0.102 µM
same,IC50,second compound 0.1 µM,0.17 µM
same,IC50,second compound 0.316 µM,0.135 µM
same,IC50,second compound 1 µM,0.0906 µM
same,IC50,second compound 3.16 µM,0.135 µM
same,IC50,second compound 10 µM,0.107 µM
same,"viability, T/C",[1],72.8%
same,"viability, T/C",[2],49.2%
same,"viability, T/C",[3],35.2%
same,"viability, T/C",[4],34.4%
same,"viability, T/C",[5],24.9%
same,"viability, T/C",[6],21.8%
same,"viability, T/C",[7],66.8%
same,"viability, T/C",[8],56.8%
same,"viability, T/C",[9],42.3%
same,"viability, T/C",[10],27.6%
same,"viability, T/C",[11],25%
same,"viability, T/C",[12],21.8%
same,"viability, T/C",[13],68.4%
same,"viability, T/C",[14],53.1%
same,"viability, T/C",[15],40.9%
same,"viability, T/C",[16],27.7%
same,"viability, T/C",[17],25.6%
same,"viability, T/C",[18],21.7%
same,"viability, T/C",[19],73.4%
same,"viability, T/C",[20],45.2%
same,"viability, T/C",[21],37.1%
same,"viability, T/C",[22],30.7%
same,"viability, T/C",[23],25.9%
same,"viability, T/C",[24],22.3%
same,"viability, T/C",[25],68.7%
same,"viability, T/C",[26],52.4%
same,"viability, T/C",[27],40.9%
same,"viability, T/C",[28],32.4%
same,"viability, T/C",[29],27.8%
same,"viability, T/C",[30],21.3%
same,"viability, T/C",[31],58.5%
same,"viability, T/C",[32],52.5%
same,"viability, T/C",[33],42.9%
same,"viability, T/C",[34],31.2%
same,"viability, T/C",[35],29.1%
same,"viability, T/C",[36],23%
